Test results published in ChEMBL document CHEMBL4359880, “PROTACs and Targeted Protein Degradation for Treating ALK-Mediated Cancers” (2019).

How the values were obtained:
SU-DHL-1 [1] = test: Cytotoxicity against human SUDHL1 cells assessed as cell growth at 100 nM incubated for 2.5 days by CCk8 assay relative to control; type: functional; conditions: SU-DHL-1, 60 h
SU-DHL-1 [2] = test: Cytotoxicity against human SUDHL1 cells assessed as cell growth at 12 nM incubated for 2.5 days by CCk8 assay relative to control; type: functional; conditions: SU-DHL-1, 60 h
SU-DHL-1 [3] = test: Cytotoxicity against human SUDHL1 cells assessed as cell growth at 40 nM incubated for 2.5 days by CCk8 assay relative to control; type: functional; conditions: SU-DHL-1, 60 h
[4] = target: T1, von Hippel-Lindau disease tumor suppressor/ALK tyrosine kinase receptor (Homo sapiens) (UniProt Q9UM73+P40337); test: Protac activity at VHL/ALK in human SUDHL1 cells assessed as increase in degradation of ALK at 30 nM by Western blot analysis relative to control; type: cell-based
[5] = target: T1, von Hippel-Lindau disease tumor suppressor/ALK tyrosine kinase receptor (Homo sapiens); test: Protac activity at VHL/ALK in human NCI-H3122 cells assessed as increase in degradation of ALK at 500 nM by Western blot analysis relative to control; type: cell-based

T1 sequence (P40337 whole entry partner): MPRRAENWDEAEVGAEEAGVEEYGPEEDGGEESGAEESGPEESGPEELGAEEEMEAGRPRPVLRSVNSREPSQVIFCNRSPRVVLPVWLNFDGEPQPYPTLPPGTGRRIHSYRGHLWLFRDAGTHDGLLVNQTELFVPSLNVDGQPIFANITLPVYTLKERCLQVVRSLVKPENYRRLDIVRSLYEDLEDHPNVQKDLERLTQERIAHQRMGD
T1 sequence (Q9UM73 19-1620 limits assumed): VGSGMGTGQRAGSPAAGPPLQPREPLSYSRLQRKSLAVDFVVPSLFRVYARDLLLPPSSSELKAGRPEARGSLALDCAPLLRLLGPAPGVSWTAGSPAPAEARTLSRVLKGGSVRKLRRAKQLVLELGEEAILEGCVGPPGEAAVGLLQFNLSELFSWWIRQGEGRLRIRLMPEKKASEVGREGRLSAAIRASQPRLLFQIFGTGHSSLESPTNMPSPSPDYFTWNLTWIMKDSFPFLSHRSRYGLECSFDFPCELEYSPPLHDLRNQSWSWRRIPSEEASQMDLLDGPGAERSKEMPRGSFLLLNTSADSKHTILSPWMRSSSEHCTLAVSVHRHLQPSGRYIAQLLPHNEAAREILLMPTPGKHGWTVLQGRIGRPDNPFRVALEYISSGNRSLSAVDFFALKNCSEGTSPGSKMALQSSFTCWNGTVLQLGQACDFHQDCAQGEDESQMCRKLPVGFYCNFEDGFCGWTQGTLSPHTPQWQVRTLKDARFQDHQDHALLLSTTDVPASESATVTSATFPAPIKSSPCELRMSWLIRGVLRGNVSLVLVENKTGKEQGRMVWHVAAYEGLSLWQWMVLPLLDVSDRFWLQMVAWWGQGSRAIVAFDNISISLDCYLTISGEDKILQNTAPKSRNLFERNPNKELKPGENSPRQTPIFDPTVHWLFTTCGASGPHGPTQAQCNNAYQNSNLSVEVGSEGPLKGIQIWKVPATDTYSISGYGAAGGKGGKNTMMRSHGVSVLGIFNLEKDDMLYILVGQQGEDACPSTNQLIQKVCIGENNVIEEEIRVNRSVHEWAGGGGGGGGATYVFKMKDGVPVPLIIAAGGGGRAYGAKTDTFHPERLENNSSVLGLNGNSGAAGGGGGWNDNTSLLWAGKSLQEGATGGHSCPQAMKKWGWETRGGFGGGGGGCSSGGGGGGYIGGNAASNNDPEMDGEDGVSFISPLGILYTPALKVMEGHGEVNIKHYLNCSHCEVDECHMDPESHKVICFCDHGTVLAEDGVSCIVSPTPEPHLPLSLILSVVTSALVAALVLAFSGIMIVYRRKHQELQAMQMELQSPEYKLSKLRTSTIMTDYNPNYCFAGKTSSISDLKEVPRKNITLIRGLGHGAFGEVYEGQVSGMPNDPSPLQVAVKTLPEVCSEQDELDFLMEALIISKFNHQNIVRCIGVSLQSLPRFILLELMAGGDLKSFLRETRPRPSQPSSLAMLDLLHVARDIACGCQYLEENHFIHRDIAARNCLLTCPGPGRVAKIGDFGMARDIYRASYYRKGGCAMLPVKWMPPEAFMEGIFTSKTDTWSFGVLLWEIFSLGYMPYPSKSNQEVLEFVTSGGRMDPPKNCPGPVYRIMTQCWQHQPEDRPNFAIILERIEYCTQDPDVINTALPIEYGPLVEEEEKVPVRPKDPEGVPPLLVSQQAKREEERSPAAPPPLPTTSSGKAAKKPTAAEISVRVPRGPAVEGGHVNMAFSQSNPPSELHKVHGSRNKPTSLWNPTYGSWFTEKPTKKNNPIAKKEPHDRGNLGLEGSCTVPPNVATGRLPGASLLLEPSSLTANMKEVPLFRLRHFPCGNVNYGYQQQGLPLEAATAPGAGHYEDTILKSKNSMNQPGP

Row | SMILES | growth, % of control at 0.1 µM (SU-DHL-1 [1]) [%] | growth, % of control at 0.012 µM (SU-DHL-1 [2]) [%] | growth, % of control at 0.04 µM (SU-DHL-1 [3]) [%] | Activity [4] [%] | Activity [5] [%]
1 | Cc1cc(Nc2ncc(Cl)c(Nc3ccccc3S(=O)(=O)C(C)C)n2)c(OC(C)C)cc1C1CCN(CC(=O)NCCOCCOCCOCCOCCNc2cccc3c2C(=O)N(C2CCC(=O)NC2=O)C3=O)CC1 (centres undefined) | 3.5 | 97.7 | 67 | > 80 | –
2 | Cc1cc(Nc2ncc(Cl)c(Nc3ccccc3S(=O)(=O)C(C)C)n2)c(OC(C)C)cc1C1CCN(C(=O)COCCOCC(=O)N[C@H](C(=O)N2C[C@H](O)C[C@H]2C(=O)N[C@@H](C)c2ccc(-c3scnc3C)cc2)C(C)(C)C)CC1 | – | – | – | – | > 80
3 | Cc1cc(Nc2ncc(Cl)c(Nc3ccccc3S(=O)(=O)C(C)C)n2)c(OC(C)C)cc1C1CCN(CC(=O)NCCNc2cccc3c2C(=O)N(C2CCC(=O)NC2=O)C3=O)CC1 (centres undefined) | 2.1 | 80.6 | 30.5 | > 80 | –
4 | Cc1cc(Nc2ncc(Cl)c(Nc3ccccc3S(=O)(=O)C(C)C)n2)c(OC(C)C)cc1C1CCN(CC(=O)NCCOCCOCCOCCOCCOCCNc2cccc3c2C(=O)N(C2CCC(=O)NC2=O)C3=O)CC1 (centres undefined) | 3.9 | 94.5 | 47.5 | > 80 | –
5 | Cc1cc(Nc2ncc(Cl)c(Nc3ccccc3S(=O)(=O)C(C)C)n2)c(OC(C)C)cc1C1CCN(C(=O)CCCC(=O)N[C@H](C(=O)N2C[C@H](O)C[C@H]2C(=O)N[C@@H](C)c2ccc(-c3scnc3C)cc2)C(C)(C)C)CC1 | – | – | – | – | > 80
